The record followed here is patent EP0167245B1, “Anti-arrhythmic agents” (AMERICAN HOME PRODUCTS CORPORATION, priority 1984, dated 1986).

The test system of this assay is rabbit aortic smooth muscle. The experiment in a line: Ca+2 antagonism: relaxation of KCl-depolarised rabbit thoracic aorta strips. It counts as cell-based. Conditions: 20 min, 100 mM KCl contracted aortic strips; for inhibition at 10 µM: Oryctolagus cuniculus, test compound 1 x 10^-5 M, 20 min after addition, mean of two experiments, read-out: percent relaxation (P. R.). The method, then:
Here, transverse strips (10 mm x 2.5 mm) from the thoracic aorta were cut and suspended vertically in a jacketed (37 °C - 50 ml volume) organ bath in physiological saline solution (PSS) aerated with 95 % Oz/5 % CO9. The composition of PSS was as follows (mM) : NaCI 112, KCI 5, NaHC03 25, KH2PO4 1, MgS04 1.2, CaCI2 2.5, dextrose 10. The lower end of each tissue strip was attached to a fixed post and the upper end to a Statham UC-4 transducer. Changes in force development were recorded on a Beckman Dynograph Polygraphic Recorder.
Following equilibration, the muscles were contracted in a depolarizing solution of PSS in which 100 mM KCI was substituted for an equimolar concentration of NaCI. Following attainment of steady-state isometric force (20 min.), the test compound was added to afford a final concentration of 1 x 10-^5 M. The inhibitory effect, expressed as percent relaxation, was determined from the mean of two experiments twenty minutes after the addition of the compound being tested.
The following examples illustrate the preparation of a representative number of compounds of this invention. After each example, the Ca^2+ antagonist activity of the compound is presented in terms of percent relaxation (P. R.) at 10-^5 M concentration unless indicated otherwise. Similarly, the percentage mortality of standard experimental test animals upon coronary ligation (C. L.) is presented for comparison with the control mortality rate of 73 percent of animals receiving vehicle alone.

`COc1ccc(CCN(C)CCCS(=O)(=O)Nc2cccc(C(F)(F)F)c2)cc1OC` [Example 5, N-(3-Trifluoromethylphenyl)-3-[[2-(3,4-dimethoxyphenyl)-ethyl)methylamino]-1-propanesulphonamide]: the inhibition at 10 µM turned out to be 51%. `COc1cc(OC)cc(N(C(C)C)S(=O)(=O)CCCN(C)CCc2ccc(OC)c(OC)c2)c1` [Example 1, N-(3,5-Dimethoxyphenyl)-3-[(2-(3,4-dimethoxyphenyl)ethyl]-methylamino]-N-(1-methylethyl)-1-prop-anesulphonamide]: the inhibition at 10 µM came to 90%. The “percent relaxation (P. R.)” value (test compound at 10-^s M as printed) is 27. Consider `COc1ccc(CCN(C)CCCN(C(C)C)S(=O)(=O)c2ccc(OC)c(OC)c2OC)cc1OC` [Example 15, N-[3-[[2-(3,4-dimethoxyphenyl)ethyl]methylamino]propyl]-N-(1-methylethyl)-2.3,4-trimethoxybenzenesul-phonamide], for which the inhibition at 10 µM came out at 80%.

Take `COc1ccc(CCN(C)CCCN(C(C)C)S(=O)(=O)c2cccc(C(F)(F)F)c2)cc1OC` [Example 7, N-[3-[[2-(3,4-Dimethoxyphenyl)ethyl]methylamino]propyl]-N-(1-methylethyl)-3-(trifluoromethyl) benzenesulphonamide]: the inhibition at 10 µM came out at 86.6%. Same read-out and setting: the result for `COc1ccc(CCN(C)CCCCN(C(C)C)S(=O)(=O)c2ccc(Cl)c(Cl)c2)cc1OC` [Example 14, 3,4-Dichloro-N-(4-[[2-(3,4-dimethoxyphenyl)ethyl]methylamino]butyl]-N-(1-methylethyl) benzenesulphonamide] reads 68%.

`COc1ccc(CCN(C)CCCS(=O)(=O)N(c2cccc(C(F)(F)F)c2)C(C)C)cc1OC` [Example 6, N-(3-Trifluoromethylphenyl)-3-[[2-(3,4-dimethoxyphenyl)ethyl]methylamino]-N-(1-methylethyl)-1-prop-anesulphonamide]: the inhibition at 10 µM is 78.5%. The same measure, in the same setting: next, `COc1ccc(CCN(C)CCCS(=O)(=O)N(c2cc(Cl)cc(Cl)c2)C(C)C)cc1OC` [Example 4, N-(3,5-Dichlorophenyl)-3-[[2-(3,4-dimethoxyphenyl)ethyl]methylamino]-N-(1-methylethyl)-1-propanesulp-honamide]: 86%; `COc1ccc(CCN(C)CCCS(=O)(=O)N(c2ccc(OC)c(OC)c2)C(C)C)cc1OC` [Example 2, N-(3,4-Dimethoxyphenyl)-3-[[2-(3,4-dimethoxyphenyl)ethyl]methylaminol]-N-(1-methylethyl)-1-prop-anesulphonamide]: 74%; `COc1ccc(CCN(C)CCCS(=O)(=O)N(c2cc(OC)c(OC)c(OC)c2)C(C)C)cc1OC` [Example 3, 3-[[2-(3,4-Dimethoxyphenyl)ethyl]methylamino]-N-(1-methylethyl)-N-(3,4,5-trimethoxyphenyl)-1-prop-anesulphonamide]: 62%.
